Tests used:
[1] = Stability by analytical reverse phase HPLC at pH 4, 7 and 10; format: physicochemical; conditions: for time structure retained: pH 4; for time remained intact / decomposition: pH 10
Protocol: Stability was monitored by an analytical reverse phase HBLC using a Beckman C18 column (4.6 mm×25 cm). Stability was analyzed in this manner at pH 4, 7 and 10, both for apoptolidin and the compound of formula 1. At pH 4, apoptolidin retained its structure for 24 hours; the compound of formula 1 for at least 28 hours when observation was terminated.

[2] = test system: mouse B cell lymphoma cell line LYAS; assay: FACS staining for annexin V, LYAS cells; format: cell-based; conditions: 6 hours incubation, read-out: IC50, percentage of annexin V+ cells
Protocol: (§1) Activity was measured by FACS staining for annexin V and by MTT assay.
The mouse B cell lymphoma cell line LYAS was incubated with apoptolidin in a compound of formula 1 for 6 hours. The treating compounds were removed and the cells were stained with annexin V-CY5PE for 15 minutes and washed 3 times. Cells were analyzed on the FACSAN and the percentage of annexin V+ cells was quantified. The IC50 of the compound of formula 1 was 10 μM; the IC50 of apoptolidin was 100 nM.

[3] = target: T1, yeast mitochondrial FOF1-ATP synthase (Saccharomyces cerevisiae, UniProt P00830+P07251+P38077+P61829); assay: Yeast mitochondrial ATPase activity assay; format: biochemical; conditions: for consumption of NADH: 80 μM oligomycin or 87 μM apoptolidin, 20 μg yeast mitochondrial protein; for Ki: yeast mitochondria, pH 8, read-out: calculated Ki, ATPase activity
T1 construct: 20 μg of yeast mitochondrial protein (as measured by the Lowry method) was added to reaction buffer; endogenous in cells; host or cells: Crude mitochondria from Saccharomyces cerevisiae strain DBY7286 grown on lactate
Protocol: The assay is that described in Example 4 hereinbelow where the combination of pyruvate kinase and LDH effect conversion of phosphoenol pyruvate to lactate in the presence of ATP and NADH. With increasing concentrations of either drug, the specific activity of the enzyme rapidly declines. The calculated Ki values for oligomycin and apoptolidin are 1 μM and 5 μM respectively. Although the observed Ki for apoptolidin is five-fold higher than that for oligomycin, this may be an underestimate of the potency of apoptolidin. […] Mitochondrial ATPase activity assays are typically performed at pH 8. Thus, the true Ki for apoptolidin may be lower than that observed herein and accounts for the observation the IC50 values for apoptolidin against both LYas as well as MCF7 cells are substantially lower than the measured Ki against mitochondrial ATPase. This difference might be explained by a preference for mammalian ATPase over yeast ATPase, or by the possibility that apoptosis via this pathway is a dominant phenotype.
Crude yeast mitochondria were isolated from a lactate grown Saccharomyces cerevisiae strain DBY7286 (mata, ura-/-) according to published procedures. Briefly, 2 L shake flasks of yeast were grown up on semisynthetic lactate medium at 30° C. with vigorous shaking to an OD600 of 3. Cells were collected at 4000 g and the wet weight of the pellet was determined. Cells were converted to spheroplasts by a 30 minute incubation at 30° C. with 2.5 mg Zymolyase 20T (ICN Biochemicals) per gram of packed cells in a volume of 2 ml per gram of packed cells in Buffer A (1.2 M sorbitol, 20 mM potassium phosphate, pH 7.4). The Zymolyase 20T was washed out twice by centrifugation at 4000 g and resuspension in Buffer A. The spheroplasts were then resuspended in Buffer B (0.6 M sorbitol, 20 mM K^+ MES, pH6.0) with 0.5 mM PMSF and homogenized in a 40 ml glass Dounce homogenizer using 15 strokes with a tight-fitting pestle. The unbroken spheroplasts were collected by centrifugation at 1500 g and rehomogenized with 15 strokes in Buffer B plus PMSF. […] The protein concentration was determined by the Lowry assay and the dark brown mitochondria were resuspended in Buffer C (0.6 M sorbitol, 20 mM HEPES, pH 7.4). Mitochondria were prepared fresh and ATPase activity was measured within 6 hours.
Mitochondrial ATPase activity was measured by standard methods. Briefly, 20 μg of yeast mitochondrial protein (as measured by the Lowry method) was added to reaction buffer containing 50 mM Tris (pH 8.0), 1 mM ATP, 0.3 mM NADH, 3.3 mM MgCl2, 2 μg/ml antimycin A, 1 mM phosphoenol pyruvate, 5 U/ml lactate dehydrogenase, and 2.5 U/ml pyruvate kinase at 28° C. […]

[4] = test system: breast carcinoma cell line MCF-7; assay: MTT assay, MCF-7 cells; format: cell-based; conditions: Homo sapiens, MCF7; MCF-7, 120 hours
Protocol: as §1
The breast carcinoma cell line MCF-7 was tested in 96-well plates in triplicate. Dilutions of apoptolidin or the compound of formula 1 were added to the wells for 120 hours. MTT was then added to the wells at a final concentration of 0.5 mg/ml. The supernatant was removed and the crystals dissolved in 40 mM HCl and isopropanol. The plates were scanned on a microplate reader at 595 nm. The IC50 of the compound of formula 1 was 10 μM; the IC50 of apoptolidin was 90 nM.

PARP = PARP cleavage in the presence of apoptolidin; format: cell-based; conditions: 1 μM apoptolidin, within 6 hours
Source text: Among those cells which have high ATP requirements, aerobic cells are sensitive, while anaerobic cells are resistant.

Jurkat cells = assay: Sensitization of Jurkat cells to apoptolidin by oxamate or deoxyglucose; format: cell-based
Protocol: For example, Jurkat cells planted at 40,000 cells per well and treated with 1 μM of apoptolidin show no cell death over a time period of 20 hours. […] Treatment with these amounts of oxamate alone has no effect. (Oxamate is a known inhibitor of lactate dehydrogenase; which converts pyruvate to lactate.)
Another compound known to repress the flow of glucose through the fermentative pathway is deoxyglucose which competes with glucose for this pathway but results in a dead end. […] Deoxyglucose alone at the control concentrations has no effect.

LYas cells = assay: % killing of LYas cells with apoptolidin or oligomycin plus oxamate; format: cell-based, murine; conditions: 7 hours; for lowest concentration showing substantial killing in presence of oxamate: LYas cells 1×10^6 ml, with oxamate
Protocol: Similar results are shown in FIG. 8 for LYas cells, where cells planted at 1×10^6 ml were assessed for % killing after 7 hours when treated with various concentrations of apoptolidin or oligomycin in the presence of various concentrations of oxamate. When no apoptosis drugs are administered, there is no effect of oxamate up to a concentration of 15 mM. However, at concentrations where the oxamate alone has no effect, both oligomycin and apoptolidin were able to show substantial killing at concentrations as low as 0.1 mM.

[5] = test system: mouse B cell lymphoma cell line LYAS; conditions: FACS staining for Annexin V; cited from earlier work
[6] = test system: breast carcinoma cell line MCF-7; conditions: MCF-7, MTT assay; cited from earlier work

## COC[C@@H](C[C@H]1O[C@@](O)([C@H](O)[C@@H]2C[C@H](OC)[C@@H](O)CC/C=C(C)/C=C/[C@@H](O[C@@H]3O[C@@H](C)[C@H](OC)[C@@H](O)[C@@H]3O)[C@H](C)/C=C(C)/C=C(C)/C=C(\C)C(=O)O2)[C@H](C)[C@@H](O)[C@H]1C)OC1C[C@](C)(O)[C@@H](O[C@H]2C[C@@H](OC)[C@H](O)[C@@H](C)O2)[C@H](C)O1 (stereo partly drawn) [apoptolidin]
[1]; buffer, pH 7, read-out: decomposition half-life (converted)
  half-life: ~5 h
[1]
  time structure retained: 24 h
  time remained intact / decomposition: decomposed almost immediately
[2]
  IC50: 0.1 µM
[3]
  consumption of NADH: dramatically reduced
  Ki: 5 µM
[4]
  IC50: 0.09 µM
PARP
  PARP cleavage: completely cleaved
Jurkat cells; 1 μM apoptolidin + 5 mM oxamate
  cell death: does not dramatically change this result
Jurkat cells; 1 μM apoptolidin + 50 mM oxamate
  time at which cell death begins: four
Jurkat cells; 1 μM apoptolidin + 50 mM oxamate, by 20 hours
  cells killed: 95%
Jurkat cells; 1 μM apoptolidin alone, 40,000 cells per well, over 20 hours
  cell death: no cell death
LYas cells
  lowest concentration showing substantial killing in presence of oxamate: 0.1 mM

## COC[C@H](O)C[C@H]1O[C@@](O)([C@H](O)[C@@H]2C[C@H](OC)[C@@H](O)CC/C=C(C)/C=C/[C@@H](O[C@@H]3OC(C)[C@H](OC)[C@@H](O)[C@@H]3O)[C@H](C)/C=C(C)/C=C(C)/C=C(\C)C(=O)O2)C(C)=C[C@H]1C (stereo partly drawn) [compound of formula 1]
[1]
  time structure retained: at least 28 hours
  time remained intact / decomposition: at least 28 hours
[1]; pH 7
  time remained intact: at least 28 hours
[2]
  IC50: 10 µM
[4]
  IC50: 10 µM
[5]
  cytotoxic activity relative to apoptolidin: 1%
[6]
  cytotoxic activity relative to apoptolidin: 1%

## O=CC[C@@H](O)[C@H](O)[C@H](O)CO [deoxyglucose, 2-deoxyglucose]
Jurkat cells; deoxyglucose alone at the control concentrations
  effect on cell death, enhancer alone: no effect
Jurkat cells; with 1 μM apoptolidin
  lowest deoxyglucose concentration at which apoptolidin effects apoptosis: 5 mM

## CC[C@H]1/C=C/C=C/C[C@@H](C)[C@H](O)[C@@](C)(O)C(=O)[C@@H](C)[C@H](O)[C@@H](C)C(=O)[C@@H](C)[C@H](O)[C@@H](C)/C=C/C(=O)O[C@@H]2[C@H](C)[C@H](CC1)O[C@]1(CC[C@H](C)[C@H](C[C@@H](C)O)O1)[C@H]2C [oligomycin]
[3]
  consumption of NADH: dramatically reduced
  Ki: 1 µM
LYas cells
  lowest concentration showing substantial killing in presence of oxamate: 0.1 mM

## NC(=O)C(=O)O [oxamate]
Jurkat cells; oxamate alone, 5 mM and 50 mM
  effect on cell death, enhancer alone: no effect
LYas cells; no apoptosis drug, up to 15 mM oxamate
  effect on % killing, oxamate alone: no effect
